The values below are quoted from earlier work in article PMC5721631 (BMJ Open Ophthalmology, 2017).

Molecules are shown by their SMILES.

This data set has as its system adrenal cortisol biosynthesis (CYP11B1). Conditions: single oral administration.

For the compound `CC(C)(C(=O)c1cccnc1)c1cccnc1` [Metpyrapone, metyrapone], the “plasma cortisol reduction from baseline” value is recorded as “Up to about 80% plasma cortisol reduction from baseline”.
